Laboratory results: patent US20110182992A1, “PEPTIDES AND PEPTIDE MIMETICS TO TREAT PATHOLOGIES ASSOCIATED WITH EYE DISEASE” (priority 2008, published 2011)

Assays:
[1] = tested on: ApoE null mice; experiment: Protection against LDL-induced monocyte chemotactic activity by HDL from apo E null mice given oral peptides; format: in vivo, mouse; conditions: ApoE null mice, peptide in drinking water 24 hrs; murine HDL at 100 μg/ml
Description: FIG. 4 illustrates protection against LDL-induced monocyte chemotactic activity by HDL from apo E null mice given oral peptides. The values are the mean±SD of the number of migrated monocytes in 9 high power fields from each of quadruple assay wells. Asterisks indicate significant difference (p<0.05) as compared to No Peptide mHDL.
After 24 hrs blood was collected, plasma fractionated by FPLC and fractions containing LDL (designated as mLDL for murine LDL) and fractions containing HDL (designated as mHDL) were separately pooled and HDL protective capacity against LDL oxidation as determined by LDL-induced monocyte chemotactic activity was determined. For the assay controls the culture wells received no lipoproteins (no additions), mLDL alone (at 200 μg cholesterol/ml), or mLDL+ standard normal human HDL (designated as Cont. h HDL, at 350 μg HDL cholesterol/ml).
For testing the murine HDL, mLDL together with murine HDL (+F mHDL or +J mHDL) were added to artery wall cell cultures. […] The murine HDL was used at 100µg cholesterol/ml.

[2] = mouse, in vivo
[3] = tested on: ApoE null mice; experiment: HDL Inflammatory Index, D-4F versus Reverse D-4F by stomach tube; format: in vivo, mouse; conditions: apoE null mice, 0, 3, 6, 12 or 25 micrograms by stomach tube, blood 7 hours later
Method: Female apoE null mice were administered by stomach tube 0, 3, 6, 12, or 25 micrograms of D-4F or Reverse D-4F in 100 microliters of water. Blood was obtained 7 hours later and the plasma was fractionated by FPLC. A standard control human LDL was added to human artery wall cells at a concentration of 100 micrograms of LDL-cholesterol/mL (LDL). The resulting monocyte chemotactic activity was normalized to 1.0. […] The resulting monocyte chemotactic activity was normalized to that of the LDL added without HDL. The resulting value is the HDL Inflammatory Index. The results shown are the Mean±S.D. for the data from three separate experiments.

[4] = tested on: ApoE null mice; experiment: Trabecular bone mineral density, peptide in drinking water; format: in vivo, mouse; conditions: drinking water for 6 weeks
[5] = tested on: ApoE null mice; experiment: HDL and pre-beta HDL from apoE null mice fed solution-phase synthesized D-4F: inhibition of LDL-induced monocyte chemotaxis; format: in vivo, mouse; conditions: ApoE null mice fed 5 micrograms in chow, bled after twelve hours; product of solution phase synthesis
Description: ApoE null mice were fed 5 micrograms of the D-4F synthesized as described above (Frgmnt) or the mice were given the same amount of mouse chow without D-4F (Chow). Twelve hours after the feeding was started, the mice were bled and their plasma was fractionated on FPLC.

[6] = tested on: LDL receptor null mice; experiment: HDL protective capacity in LDL receptor null mice given peptide in drinking water; format: in vivo; conditions: 0.25 or 0.5 mg per ml of drinking water, 24 or 48 hrs, mouse HDL at 100 μg/ml
Method: FIG. 3 illustrates the effect of apo J peptide mimetics on HDL protective capacity in LDL receptor null mice. The values are the mean±SD of the number of migrated monocytes in 9 high power fields from each of quadruple assay wells.
D-4F designated as F, or the apoJ peptide made from D amino acids (D-J336, designated as J) was added to the drinking water of LDL receptor null mice (4 per group) at 0.25 or 0.5 mg per ml of drinking water. After 24- or 48-hrs blood was collected from the mice and their HDL was isolated and tested for its ability to protect against LDL-induced monocyte chemotactic activity. Assay controls included culture wells that received no lipoproteins (no addition), or control human LDL alone (designated as LDL, 200µg cholesterol/ml), or control LDL+ control human HDL (designated as +HDL, 350µg HDL cholesterol). For testing the mouse HDL, the control LDL was added together with mouse HDL (+F HDL or +J HDL) to artery wall cell cultures. The mouse HDL was added at 100 μg cholesterol/ml respectively.

[7] = in vivo; cited from earlier work
[8] = tested on: Obese Zucker rats; experiment: Plasma glucose and lipid hydroperoxides (LOOH) in obese Zucker rats; format: in vivo, rat; conditions: Obese Zucker rats 26 weeks of age, 5.0 mg/kg/day intraperitoneal, 10 days
Method: Obese Zucker rats 26 weeks of age were bled and then treated with daily intraperitoneal injections of D-4F (5.0 mg/kg/day). After 10 days the rats were bled again plasma glucose and lipid hydroperoxides (LOOH) were determined. *p=0.027; **p=0.0017.

[9] = tested on: ApoE null mice; experiment: HDL function after D-4F and/or statin in the drinking water; format: in vivo, mouse; conditions: 1 μg/ml in the drinking water for 24 hours

time after an oral dose at which essentially non-detectable in the circulation ([2]; po): 6 h
Structure (SMILES): CC(=O)N[C@H](CC(=O)O)C(=O)N[C@H](Cc1c[nH]c2ccccc12)C(=O)N[C@H](Cc1ccccc1)C(=O)N[C@H](CCCCN)C(=O)N[C@H](C)C(=O)N[C@H](Cc1ccccc1)C(=O)N[C@H](Cc1ccc(O)cc1)C(=O)N[C@H](CC(=O)O)C(=O)N[C@H](CCCCN)C(=O)N[C@@H](C(=O)N[C@H](C)C(=O)N[C@H](CCC(=O)O)C(=O)N[C@H](CCCCN)C(=O)N[C@H](Cc1ccccc1)C(=O)N[C@H](CCCCN)C(=O)N[C@H](CCC(=O)O)C(=O)N[C@H](C)C(=O)N[C@H](Cc1ccccc1)C(N)=O)C(C)C [Peptide D-4F, Ac-D-W-F-K-A-F-Y-D-K-V-A-E-K-F-K-E-A-F-NH2]
activity of murine HDL against LDL-induced monocyte chemotactic activity [1]: as active as 350µg/ml of normal human HDL
association with pre-beta HDL and HDL [2]: rapidly associates with pre-beta HDL and HDL
biological activities (HDL Inflammatory Index), D-4F versus Reverse D-4F [3]: not significantly different
trabecular bone mineral density [4]: dramatically increased trabecular bone mineral density
biological activity in producing HDL and pre-beta HDL that inhibit LDL-induced monocyte chemotaxis [5]: very biologically active in producing HDL and pre-beta HDL that inhibit LDL-induced monocyte chemotaxis
activity of mouse HDL in preventing control LDL from inducing artery wall cells to produce monocyte chemotactic activity [6]: as active as 350 μg/ml of control human HDL
side effects [7]: no side effects
mitigation of symptoms of diabetes (plasma glucose, lipid hydroperoxides) [8]: effective in mitigating symptoms of diabetes
HDL function, D-4F alone [9]: did not significantly improve HDL function
